{"source": "paper PMC5566973", "about": "(Frontiers in Pharmacology, 2017)", "key": {"human MRP2": {"molecular_target": "T1, human MRP2 (Homo sapiens, UniProt Q92887)", "T1 construct": "purchased GenoMembrane (Kanagawa, Japan); host or cells: Sf9", "T1 sequence (Q92887 whole entry)": "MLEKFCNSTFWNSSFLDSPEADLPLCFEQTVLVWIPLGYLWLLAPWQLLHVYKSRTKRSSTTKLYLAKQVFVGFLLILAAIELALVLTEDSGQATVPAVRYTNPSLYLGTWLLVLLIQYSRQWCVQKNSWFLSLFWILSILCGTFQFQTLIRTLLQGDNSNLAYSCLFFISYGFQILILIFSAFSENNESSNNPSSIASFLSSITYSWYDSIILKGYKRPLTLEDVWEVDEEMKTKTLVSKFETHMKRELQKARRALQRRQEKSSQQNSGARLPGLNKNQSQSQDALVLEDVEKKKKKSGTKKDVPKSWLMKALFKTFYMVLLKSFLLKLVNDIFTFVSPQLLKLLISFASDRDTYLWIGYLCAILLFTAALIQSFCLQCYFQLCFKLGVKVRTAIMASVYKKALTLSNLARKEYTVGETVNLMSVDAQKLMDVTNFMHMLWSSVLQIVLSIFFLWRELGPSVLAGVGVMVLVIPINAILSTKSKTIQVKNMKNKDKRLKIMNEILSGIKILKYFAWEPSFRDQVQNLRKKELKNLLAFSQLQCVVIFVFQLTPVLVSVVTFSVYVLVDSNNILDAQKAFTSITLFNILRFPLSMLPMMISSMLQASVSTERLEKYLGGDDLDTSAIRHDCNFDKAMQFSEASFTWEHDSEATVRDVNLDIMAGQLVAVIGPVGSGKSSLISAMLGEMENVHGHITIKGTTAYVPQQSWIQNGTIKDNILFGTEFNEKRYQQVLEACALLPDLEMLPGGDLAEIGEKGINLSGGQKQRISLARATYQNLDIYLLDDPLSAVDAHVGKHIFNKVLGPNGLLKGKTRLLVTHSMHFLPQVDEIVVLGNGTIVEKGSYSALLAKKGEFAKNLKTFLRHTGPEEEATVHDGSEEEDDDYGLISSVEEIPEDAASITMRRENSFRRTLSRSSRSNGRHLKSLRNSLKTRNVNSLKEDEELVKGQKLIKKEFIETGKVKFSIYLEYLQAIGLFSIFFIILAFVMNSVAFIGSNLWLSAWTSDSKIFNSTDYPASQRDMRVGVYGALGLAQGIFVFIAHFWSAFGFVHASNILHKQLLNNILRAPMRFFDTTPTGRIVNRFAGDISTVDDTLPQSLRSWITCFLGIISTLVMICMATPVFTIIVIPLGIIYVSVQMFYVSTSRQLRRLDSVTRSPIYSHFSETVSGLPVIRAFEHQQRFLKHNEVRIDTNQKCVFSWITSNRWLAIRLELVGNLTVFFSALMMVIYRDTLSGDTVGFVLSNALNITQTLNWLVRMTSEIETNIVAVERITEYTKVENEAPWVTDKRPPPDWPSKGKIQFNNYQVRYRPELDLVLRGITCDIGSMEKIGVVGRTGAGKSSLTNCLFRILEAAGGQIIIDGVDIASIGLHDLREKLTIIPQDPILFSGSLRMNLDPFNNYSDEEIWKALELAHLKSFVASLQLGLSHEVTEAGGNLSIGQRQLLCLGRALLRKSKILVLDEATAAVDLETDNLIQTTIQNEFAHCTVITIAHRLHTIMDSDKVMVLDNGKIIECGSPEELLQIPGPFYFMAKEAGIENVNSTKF", "assay": "Vesicular transport assay, Sf9 membrane vesicles expressing human MRP2", "assay_type": "in vitro ADME", "conditions": "1 μM, MgATP vs MgAMP", "method": "(§1) The vesicular transport assay was implemented as described in the GenoMembrane™ vesicular transport kit protocol (GenoMembrane, Kanagawa, Japan) with minor changes. Briefly, vesicle stocks were thawed and diluted with assay buffer (50 mM MOPS-Tris, 70 mM KCl, and 7.5 mM MgCl2). […] MgAMP instead of MgATP was used as a control. Apart from these, 4 mM glutathione was also included in BCRP and MRP2 assays. Transport was terminated with ice cold assay buffer, and then samples were quickly transferred to a filter plate. Wells were immediately washed 5 times with 200 μL assay buffer and dried. The vesicles on the plate were dissolved in 50 μL of 80% methanol and centrifuged at 2,000 rpm for 2 min after collection, and repeating the above procedures. Mixed the two filtrates together and added the pre-cooled methanol. After centrifugation at 12,000 rpm for 5 min at 4°C, a 5 μL aliquot of supernatant was injected into the UPLC-ESI-MS/MS system for analysis. Furthermore, the uptake of NMQ (MDR1), LY (BCRP), and E217βG (MRP2) was used to evaluate the activity of specific vesicles."}, "[1]": {"set-up": "method as in Wu et al., 2009", "conditions": "wild-type and CYP2D6-humanized mice, intraperitoneal injection, 5 or 15 mg/kg; ref Wu et al., 2009; cited from earlier work"}, "human BCRP": {"molecular_target": "T2, human BCRP (Homo sapiens, UniProt Q9UNQ0)", "T2 construct": "purchased GenoMembrane (Kanagawa, Japan); host or cells: Sf9", "T2 sequence (Q9UNQ0 1-655)": "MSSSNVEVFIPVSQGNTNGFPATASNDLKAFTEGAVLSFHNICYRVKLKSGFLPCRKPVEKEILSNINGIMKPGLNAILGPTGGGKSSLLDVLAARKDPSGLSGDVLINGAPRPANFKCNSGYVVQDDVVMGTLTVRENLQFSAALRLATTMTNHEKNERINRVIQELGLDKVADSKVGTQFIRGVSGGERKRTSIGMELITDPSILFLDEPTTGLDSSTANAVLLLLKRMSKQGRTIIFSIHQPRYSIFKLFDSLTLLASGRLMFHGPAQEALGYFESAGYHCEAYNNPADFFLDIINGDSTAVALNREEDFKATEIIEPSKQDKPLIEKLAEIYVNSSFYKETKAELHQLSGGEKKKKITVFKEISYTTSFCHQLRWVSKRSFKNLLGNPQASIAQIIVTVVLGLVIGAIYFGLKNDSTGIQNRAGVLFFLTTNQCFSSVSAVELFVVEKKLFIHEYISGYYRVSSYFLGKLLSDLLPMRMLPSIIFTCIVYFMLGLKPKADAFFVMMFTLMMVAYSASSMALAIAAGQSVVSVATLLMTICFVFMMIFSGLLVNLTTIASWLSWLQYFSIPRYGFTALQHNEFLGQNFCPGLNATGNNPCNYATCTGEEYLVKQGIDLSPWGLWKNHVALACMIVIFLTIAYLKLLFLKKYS", "assay": "Vesicular transport assay, Sf9 membrane vesicles expressing human BCRP", "assay_type": "in vitro ADME", "conditions": "1 μM, MgATP vs MgAMP", "method": "as §1"}, "human MDR1": {"molecular_target": "T3, human MDR1 (Homo sapiens, UniProt P08183)", "T3 construct": "purchased GenoMembrane (Kanagawa, Japan); host or cells: Sf9", "T3 sequence (P08183 whole entry)": "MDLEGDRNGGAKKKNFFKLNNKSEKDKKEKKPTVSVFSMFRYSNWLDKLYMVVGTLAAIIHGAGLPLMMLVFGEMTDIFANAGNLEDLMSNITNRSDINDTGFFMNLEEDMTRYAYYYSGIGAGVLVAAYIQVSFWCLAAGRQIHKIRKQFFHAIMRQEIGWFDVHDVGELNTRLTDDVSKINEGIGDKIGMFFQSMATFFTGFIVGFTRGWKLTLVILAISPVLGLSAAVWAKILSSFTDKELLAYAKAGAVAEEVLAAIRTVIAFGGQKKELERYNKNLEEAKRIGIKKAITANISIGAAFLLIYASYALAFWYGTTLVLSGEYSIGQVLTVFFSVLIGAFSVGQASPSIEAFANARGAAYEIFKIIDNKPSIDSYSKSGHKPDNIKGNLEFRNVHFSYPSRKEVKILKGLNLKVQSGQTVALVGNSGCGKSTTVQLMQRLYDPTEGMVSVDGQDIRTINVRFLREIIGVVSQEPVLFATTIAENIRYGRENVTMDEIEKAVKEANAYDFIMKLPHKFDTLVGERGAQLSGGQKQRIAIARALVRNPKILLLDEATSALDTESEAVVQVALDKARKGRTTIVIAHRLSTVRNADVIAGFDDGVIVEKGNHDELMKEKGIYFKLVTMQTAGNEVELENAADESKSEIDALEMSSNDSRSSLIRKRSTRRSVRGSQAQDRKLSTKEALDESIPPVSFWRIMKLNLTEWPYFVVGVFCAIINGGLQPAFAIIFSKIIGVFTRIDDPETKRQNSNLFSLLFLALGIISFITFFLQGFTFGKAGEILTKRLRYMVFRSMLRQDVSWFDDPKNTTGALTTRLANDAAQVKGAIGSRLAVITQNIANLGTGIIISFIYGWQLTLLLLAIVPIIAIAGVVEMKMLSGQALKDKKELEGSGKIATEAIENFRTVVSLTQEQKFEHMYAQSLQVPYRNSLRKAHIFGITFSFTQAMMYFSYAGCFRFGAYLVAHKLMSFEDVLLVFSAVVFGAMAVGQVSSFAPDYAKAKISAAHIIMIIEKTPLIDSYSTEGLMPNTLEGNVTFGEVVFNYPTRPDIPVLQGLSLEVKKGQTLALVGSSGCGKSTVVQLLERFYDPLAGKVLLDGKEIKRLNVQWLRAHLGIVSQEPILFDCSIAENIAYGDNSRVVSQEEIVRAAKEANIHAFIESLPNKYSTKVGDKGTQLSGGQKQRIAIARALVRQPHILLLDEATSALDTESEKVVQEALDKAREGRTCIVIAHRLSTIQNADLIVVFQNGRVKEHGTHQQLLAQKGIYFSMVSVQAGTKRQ", "assay": "Vesicular transport assay, Sf9 membrane vesicles expressing human MDR1", "assay_type": "in vitro ADME", "conditions": "1 μM, MgATP vs MgAMP", "method": "as §1"}}, "note": "Where “and” joins values, the source holds several entries; their conditions need not be identical. Equal entries are not always repeated.", "data": [{"smiles": "COc1ccc2c3c([nH]c2c1)C(C)=NCC3", "note": "[Harmaline]", "values": [{"measurement": "uptake ratio (UR)", "setting": "human MRP2", "value": "< 2.00 and 1.35"}, {"measurement": "F-values", "setting": "[1]", "value": "73.7% and 98.2% and 68.6% and 60.0%"}, {"measurement": "uptake ratio (UR)", "setting": "human BCRP", "value": "< 2.00 and 1.42"}, {"measurement": "uptake ratio (UR)", "setting": "human MDR1", "value": "< 2.00 and 1.97"}]}]}
